# Structures can show the parent of a compound that is named as a salt.
# What was measured:
# MCL-Jeko = assay: Mantle Cell Lymphoma Assay: cytotoxicity, Jeko; assay type: cell-based; conditions: 72 hrs in culture
# Text: (§1) MCL cell lines Jeko, Mino, and Rec-1 were provided by American Type Culture Collection: The Bioresource Center (Manassas, Va.). […] Carlsbad, Calif.) in T-75 culture flasks. Cell concentration was maintained between 2 to 3×10^5 cells/mL. Early passage cells (passages 2-4) were used for all experiments. Ficoll-Histopaque density sedimentation (Sigma Aldrich) was used for separation of debris and purification of cell lines prior to experiments. […] The cytotoxic effect of test compounds on the MCL-cell lines was assessed by measuring cell concentration and cell viability using a Beckman Coulter Vi-Cell Counter. Controls and treated cells were harvested and counted at day 3.
# Bmi-1 [1] = assay: Sandwich ELISA Assay (Bmi-1 ELISA in HT-1080 cells); assay type: cell-based, human
# How it was run: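 HT-1080 cells (8000/well) were treated with compounds in 0.5% final DMSO for 40-48 h at 37°C and then lysed. Bmi-1 in lysates was measured by sandwich ELISA: overnight capture at 4°C on mouse monoclonal, rabbit anti-Bmi-1 detection, HRP anti-rabbit, TMB. OD450 was read with an OD570 reference against a recombinant GST-Bmi-1 standard curve (0-8000 pg/mL).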
# MCL-Mino = assay: Mantle Cell Lymphoma Assay: cytotoxicity, Mino; assay type: cell-based; conditions: 72 hrs in culture
# Text: as §1
# MCL-Rec1 = assay: Mantle Cell Lymphoma Assay: cytotoxicity, Rec-1; assay type: cell-based; conditions: 72 hrs in culture
# Text: as §1
# [2] = test system: Jeko, Mino and Rec-1 cells; assay: cells; assay type: cell-based; conditions: 72 h, read-out: decrease in cell viability
# MM cell line = assay: Multiple Myeloma Assay; assay type: cell-based; conditions: 72 hrs in culture
# Bmi-1 [3] = assay: Cell Model Assay: Bmi-1 expression in HT1080; assay type: cell-based, human; conditions: HT1080 (fibrosarcoma)
# Description: (§2) Using assay conditions known to those skilled in the art, the ability of the compounds described herein to reduce Bmi-1 expression in HT1080 (fibrosarcoma), U87-MG (glioblastoma), T98G (glioblastoma), K562 (chronic myelogenous leukemia) and KG1 (acute myelogenous leukemia) cell lines was tested (at test compound concentrations calculated from the ELISA assay data shown in Example 1) compared to puromycin as a control to provide the EC50 values shown in Table 2. The term “ND” means that data was not determined.
# Bmi-1 [4] = assay: Cell Model Assay: Bmi-1 expression in U87-MG; assay type: cell-based; conditions: U87-MG (glioblastoma)
# Description: as §2
# Bmi-1 [5] = assay: Cell Model Assay: Bmi-1 expression in T98G; assay type: cell-based; conditions: T98G (glioblastoma)
# Description: as §2
# Bmi-1 [6] = assay: Cell Model Assay: Bmi-1 expression in K562; assay type: cell-based; conditions: K562 (chronic myelogenous leukemia)
# Description: as §2
# Bmi-1 [7] = assay: Cell Model Assay: Bmi-1 expression in KG1; assay type: cell-based; conditions: KG1 (acute myelogenous leukemia)
# Description: as §2
smiles,measurement,setting,value
"Cc1nc2ncccn2c1-c1csc(Nc2ccc(Cl)cc2)n1 [Cpd 49, N-(4-chlorophenyl)-4-(2-methylimidazo[1,2-a]pyrimidin-3-yl)-1,3-thiazol-2-amine]","Cell Concentration, MCL-Jeko",MCL-Jeko; dose 0.004 μM,1.83 ± 0.01 ×10^6
same,viability at 0.004 µM,"MCL-Jeko; dose 0.004 μM, read-out: Cell Viability, MCL-Jeko",74.33 ± 0.53%
same,"Cell Concentration, MCL-Jeko",MCL-Jeko; dose 0.037 μM,1.94 ± 0.06 ×10^6
same,viability at 0.037 µM,"MCL-Jeko; dose 0.037 μM, read-out: Cell Viability, MCL-Jeko",74.7 ± 1.08%
same,"Cell Concentration, MCL-Jeko",MCL-Jeko; dose 0.11 μM,2.06 ± 0.04 ×10^6
same,viability at 0.11 µM,"MCL-Jeko; dose 0.11 μM, read-out: Cell Viability, MCL-Jeko",78.73 ± 0.33%
same,"Cell Concentration, MCL-Jeko",MCL-Jeko; dose 0.33 μM,1.82 ± 0.06 ×10^6
same,viability at 0.33 µM,"MCL-Jeko; dose 0.33 μM, read-out: Cell Viability, MCL-Jeko",73.2 ± 0.58%
same,"Cell Concentration, MCL-Jeko",MCL-Jeko; dose 1 μM,0.66 ± 0.05 ×10^6
same,viability at 1 µM,"MCL-Jeko; dose 1 μM, read-out: Cell Viability, MCL-Jeko",39.6 ± 2.28%
same,"Cell Concentration, MCL-Jeko",MCL-Jeko; dose 3 μM,0.06 ± 0.01 ×10^6
same,viability at 3 µM,"MCL-Jeko; dose 3 μM, read-out: Cell Viability, MCL-Jeko",5.4 ± 0.61%
same,IC50,Bmi-1 [1],< 500 nM
same,viability at 0.004 µM,"MCL-Mino; Homo sapiens, MINO, dose 0.004 μM, read-out: Cell Viability, MCL-Mino",94.7 ± 0.44%
same,viability at 0.037 µM,"MCL-Mino; Homo sapiens, MINO, dose 0.037 μM, read-out: Cell Viability, MCL-Mino",91.2 ± 1%
same,viability at 0.11 µM,"MCL-Mino; Homo sapiens, MINO, dose 0.11 μM, read-out: Cell Viability, MCL-Mino",75.6 ± 1.49%
same,viability at 0.33 µM,"MCL-Mino; Homo sapiens, MINO, dose 0.33 μM, read-out: Cell Viability, MCL-Mino",34.4 ± 2.46%
same,viability at 1 µM,"MCL-Mino; Homo sapiens, MINO, dose 1 μM, read-out: Cell Viability, MCL-Mino",15.3 ± 1.13%
same,viability at 3 µM,"MCL-Mino; Homo sapiens, MINO, dose 3 μM, read-out: Cell Viability, MCL-Mino",12.7 ± 1.47%
same,"Cell Concentration, MCL-Mino",MCL-Mino; dose 0.004 μM,1.87 ± 0.04 ×10^6
same,"Cell Concentration, MCL-Mino",MCL-Mino; dose 0.037 μM,1.72 ± 0.09 ×10^6
same,"Cell Concentration, MCL-Mino",MCL-Mino; dose 0.11 μM,0.97 ± 0.06 ×10^6
same,"Cell Concentration, MCL-Mino",MCL-Mino; dose 0.33 μM,0.15 ± 0.06 ×10^6
same,"Cell Concentration, MCL-Mino",MCL-Mino; dose 1 μM,0.07 ± 0.01 ×10^6
same,"Cell Concentration, MCL-Mino",MCL-Mino; dose 3 μM,0.06 ± 0.01 ×10^6
same,viability at 0.004 µM,"MCL-Rec1; Homo sapiens, Rec1, dose 0.004 μM, read-out: Cell Viability, MCL-Rec1",89.2 ± 0.33%
same,viability at 0.037 µM,"MCL-Rec1; Homo sapiens, Rec1, dose 0.037 μM, read-out: Cell Viability, MCL-Rec1",89.07 ± 0.33%
same,viability at 0.11 µM,"MCL-Rec1; Homo sapiens, Rec1, dose 0.11 μM, read-out: Cell Viability, MCL-Rec1",90.07 ± 0.1%
same,viability at 0.33 µM,"MCL-Rec1; Homo sapiens, Rec1, dose 0.33 μM, read-out: Cell Viability, MCL-Rec1",81.93 ± 0.03%
same,viability at 1 µM,"MCL-Rec1; Homo sapiens, Rec1, dose 1 μM, read-out: Cell Viability, MCL-Rec1",51 ± 1.83%
same,viability at 3 µM,"MCL-Rec1; Homo sapiens, Rec1, dose 3 μM, read-out: Cell Viability, MCL-Rec1",12 ± 0.95%
same,"Cell Concentration, MCL-Rec1",MCL-Rec1; dose 0.004 μM,0.83 ± 0.01 ×10^6
same,"Cell Concentration, MCL-Rec1",MCL-Rec1; dose 0.037 μM,0.87 ± 0.01 ×10^6
same,"Cell Concentration, MCL-Rec1",MCL-Rec1; dose 0.11 μM,0.84 ± 0.01 ×10^6
same,"Cell Concentration, MCL-Rec1",MCL-Rec1; dose 0.33 μM,0.58 ± 0.00 ×10^6
same,"Cell Concentration, MCL-Rec1",MCL-Rec1; dose 1 μM,0.21 ± 0.01 ×10^6
same,"Cell Concentration, MCL-Rec1",MCL-Rec1; dose 3 μM,0.04 ± 0.00 ×10^6
same,cytotoxicity at 0.08 µM,[2],70 to 90%
same,"Cell Concentration, MM cell line",MM cell line; dose 0.004 μM,1.22 ± 0.05 ×10^6
same,viability at 0.004 µM,MM cell line; dose 0.004 μM,89.63 ± 0.35%
same,"Cell Concentration, MM cell line",MM cell line; dose 0.037 μM,1.09 ± 0.05 ×10^6
same,viability at 0.037 µM,MM cell line; dose 0.037 μM,89.53 ± 0.46%
same,"Cell Concentration, MM cell line",MM cell line; dose 0.11 μM,0.85 ± 0.05 ×10^6
same,viability at 0.11 µM,MM cell line; dose 0.11 μM,84.7 ± 0.88%
same,"Cell Concentration, MM cell line",MM cell line; dose 0.33 μM,0.38 ± 0.01 ×10^6
same,viability at 0.33 µM,MM cell line; dose 0.33 μM,69.6 ± 0.85%
same,"Cell Concentration, MM cell line",MM cell line; dose 1 μM,0.21 ± 0.01 ×10^6
same,viability at 1 µM,MM cell line; dose 1 μM,55.5 ± 2.4%
same,"Cell Concentration, MM cell line",MM cell line; dose 3 μM,0.22 ± 0.01 ×10^6
same,viability at 3 µM,MM cell line; dose 3 μM,55.5 ± 1.79%
"COc1cc(C)c(Nc2nc(-c3cnc4ccc(Cl)cn34)cs2)c(C)c1 [Cpd 27, 4-(6-chloroimidazo[1,2-a]pyridine-3-yl)-N-(4-methoxy-2,6-dimethylphenyl)thiazol-2-amine]","Cell Concentration, MCL-Jeko",MCL-Jeko; dose 0.004 μM,1.98 ± 0.03 ×10^6
same,"Cell Concentration, MCL-Jeko",MCL-Jeko; dose 0.037 μM,1.99 ± 0.02 ×10^6
same,"Cell Concentration, MCL-Jeko",MCL-Jeko; dose 0.11 μM,1.96 ± 0.05 ×10^6
same,"Cell Concentration, MCL-Jeko",MCL-Jeko; dose 0.33 μM,1.77 ± 0.02 ×10^6
same,"Cell Concentration, MCL-Jeko",MCL-Jeko; dose 1 μM,1.46 ± 0.02 ×10^6
same,"Cell Concentration, MCL-Jeko",MCL-Jeko; dose 3 μM,0.34 ± 0.04 ×10^6
same,EC50,Bmi-1 [3],410 nM
same,EC50,Bmi-1 [4],1200 nM
same,IC50,Bmi-1 [1],< 500 nM
same,"Cell Concentration, MCL-Mino",MCL-Mino; dose 0.004 μM,0.62 ± 0.02 ×10^6
same,"Cell Concentration, MCL-Mino",MCL-Mino; dose 0.037 μM,0.64 ± 0.01 ×10^6
same,"Cell Concentration, MCL-Mino",MCL-Mino; dose 0.11 μM,0.59 ± 0.03 ×10^6
same,"Cell Concentration, MCL-Mino",MCL-Mino; dose 0.33 μM,0.57 ± 0.01 ×10^6
same,"Cell Concentration, MCL-Mino",MCL-Mino; dose 1 μM,0.41 ± 0.00 ×10^6
same,"Cell Concentration, MCL-Mino",MCL-Mino; dose 3 μM,0.09 ± 0.00 ×10^6
same,EC50,Bmi-1 [5],91 nM
same,EC50,Bmi-1 [6],55 nM
same,"Cell Concentration, MCL-Rec1",MCL-Rec1; dose 0.004 μM,1.66 ± 0.06 ×10^6
same,"Cell Concentration, MCL-Rec1",MCL-Rec1; dose 0.037 μM,1.65 ± 0.03 ×10^6
same,"Cell Concentration, MCL-Rec1",MCL-Rec1; dose 0.11 μM,1.63 ± 0.04 ×10^6
same,"Cell Concentration, MCL-Rec1",MCL-Rec1; dose 0.33 μM,1.53 ± 0.01 ×10^6
same,"Cell Concentration, MCL-Rec1",MCL-Rec1; dose 1 μM,1.24 ± 0.03 ×10^6
same,"Cell Concentration, MCL-Rec1",MCL-Rec1; dose 3 μM,0.09 ± 0.01 ×10^6
same,"Cell Concentration, MM cell line",MM cell line; dose 0.004 μM,1.46 ± 0.01 ×10^6
same,"Cell Concentration, MM cell line",MM cell line; dose 0.037 μM,1.36 ± 0.07 ×10^6
same,"Cell Concentration, MM cell line",MM cell line; dose 0.11 μM,1.30 ± 0.01 ×10^6
same,"Cell Concentration, MM cell line",MM cell line; dose 0.33 μM,0.80 ± 0.01 ×10^6
same,"Cell Concentration, MM cell line",MM cell line; dose 1 μM,0.17 ± 0.00 ×10^6
same,"Cell Concentration, MM cell line",MM cell line; dose 3 μM,0.2 ± 0.05 ×10^6
same,EC50,Bmi-1 [7],128 nM
"COc1cc(Cl)c(Nc2nc(-c3c(C)nc4ncccn34)cs2)c(Cl)c1 (as salt: HBr) [Cpd 19, N-(2,6-dichloro-4-methoxyphenyl)-4-(2-methylimidazo[1,2-a]pyrimidin-3-yl)thiazol-2-amine]",melting point,,232 to 240 °C

# — patent US8680113B2, “BMI-1 protein expression modulators” (PTC Therapeutics, Inc., priority 2008, dated 2014)
